Test results as given in paper PMC4326964, “Probing the substrate specificity of Trypanosoma brucei GlcNAc-PI de-N-acetylase with synthetic substrate analogues” (Organic & Biomolecular Chemistry, 2014).
“Also recorded” adds a separate entry of the source.

What was measured:
[1] = biological target: T1, T. brucei GlcNAc-PI de-N-acetylase (Trypanosoma brucei brucei, UniProt Q8I8A5); test: Substrate recognition (de-N-acetylation turnover) in T. brucei cell-free system, LC-MS/MS assay; type: biochemical; details: for Substrate activity: recognised and processed (in words): N-acetylated analogue as substrate of the de-N-acetylase; for Turnover: conversion of N-acetylated compound to free amine, 37 °C, 1 h, ND = turnover not detected, for 53 measured via d6-Ac2O derivatisation of the free amine; for Relative turnover: turnover relative to α-D-GlcpNAc-PI (1)
Experimental: [8],[10] The N-acetylated analogues of these compounds were prepared as previously described to give compounds 47–53 (Fig. 3).
Using LC-MS/MS, multiple reaction monitoring of characteristic transitions for the N-acetylated and corresponding amine form of each compound was used to directly measure the rate of conversion of the N-acetylated compound to the free amine (Table 1). As no suitable transition was identified for the amine form of 13, the enzymatic turnover was accessed by reacting any free amine formed with d 6-Ac2O, and measuring the formation of the d 3-N-acetylated form by LC-MS/MS.
The synthesis of 1-D-6-O-(2-amino-2-deoxy-α-D-glucopyranosyl)-myo-inositol 1-(octadecyl phosphate), (4, α-D-GlcpNH2-IPC18), [15] has been described previously. The corresponding N-acetyl derivate α-D-GlcpNAc-IPC18 (3) was prepared by treatment with acetic anhydride, [13] and the concentration of stock solutions determined by measurement of the inositol content by selected ion-monitoring GC-MS. Bloodstream form Trypanosome brucei (variant MITat1.4) were isolated and membranes (cell-free system) prepared as described previously and stored at –80 °C.
Substrate recognition assays were performed using 500 pmol of α-D-GlcpNAc-PI (1) in incorporation buffer (25 mM Tris pH 8.0, 50 mM KCl, 50 mM MnCl2) and varying amounts of trypanosome cell-free system (0–15 × 10^6 cell equivalents per assay) in 96-well plates containing 100 μL final volume, and incubated at 37 °C for 1 h. The reaction was quenched and the glycolipids enriched and analyzed by LC-MS/MS as described below.
(§1) Enrichment of glycolipids was performed in a 96-well plate format. Reactions were quenched by addition of 200 μL of 5% propan-1-ol, 5 mM NH4OAc, and the glycolipids were bound to C18 resin (50 mg Isolute Array cartridge), washed three times with 200 μL 5% propan-1-ol, 5 mM NH4OAc and eluted with 100 μL 40% propan-1-ol, 5 mM NH4OAc into a 96-well collection plate.
Prior to subsequent analysis, compound 13 was dried under nitrogen, resuspended in MeOH (100 μL) and any free amine reacted with excess d 6-Ac2O (1.5 μL) in the presence of pyridine (10 μL) for 15 min. The reaction was quenched with water (50 μL), dried under nitrogen and resuspended in 100 μL 40% propan-1-ol, 5 mM NH4OAc.
(§2) Glycolipids were analyzed by liquid chromatography coupled to an electrospray tandem mass spectrometer (LC-MS/MS). Samples (40 μL) were injected directly from a 96-well plate onto a 10 × 1 mm C18 column (ACE, […]) and then eluted using a binary gradient of 5–80% propan-1-ol in 5 mM NH4OAc (Dionex Ultimate 3000). The gradient consisted of 2 min 0% B, 2–4 min 0–100% B, 4–8 min 100%, 8–9 min 100–0% B, 9–10 min 0% B where buffer A consisted of 5% propan-1-ol, 5 mM NH4OAc and buffer B 80% propan-1-ol, 5 mM NH4OAc. The glycolipids were analysed on an electrospray triple quadrapole mass spectrometer (Micromass Quattro Ultima) in multiple reaction monitoring mode.
For each pseudodisaccharide analogue (7–12), standards of the N-acetylated compound and corresponding free amine were analyzed separately in order to identify unique transitions for use in subsequent multiple reaction monitoring experiments (Table 1). The ratio of the integrals for these transitions was used to calculate the percentage of substrate conversion to product in a given sample. For compound 13, standards of the N-acetylated compound and the d 3-N-acetylated form were analyzed separately and found to produce a common fragment for use in subsequent multiple reaction monitoring experiments.

[2] = biological target: T1, T. brucei GlcNAc-PI de-N-acetylase; test: Inhibition of turnover of α-D-GlcpNAc-IPC18 (3) in T. brucei cell-free system, LC-MS/MS assay; type: biochemical; details: inhibition of turnover of 3; tested at 100 μM
Experimental: Since the majority of the compounds were not processed by the T. brucei GlcNAc-PI de-N-acetylase, we tested their ability to inhibit the turnover of the α-D-GlcpNAc-IPC18 (3) substrate by the T. brucei GlcNAc-PI de-N-acetylase in the LC-MS/MS assay.
Inhibition assays were performed in 96-well plates in 100 μL final volume, with 1% v/v DMSO with or without inhibitor. Trypanosome cell-free system (2.5 × 10^6 cell equivalents per assay) in incorporation buffer were added to wells containing 500 pmol α-D-GlcpNAc-IPC18 (3) with or without inhibitor and incubated at 37 °C for 1 h. The reaction was quenched and the glycolipids enriched and analyzed by LC-MS/MS as described below.
as §1, §2
For inhibition assays, the turnover of the substrate α-D-GlcpNAc-IPC18 (3) was used to calculate the percentage of substrate conversion to product in a given sample. Inhibitor IC50 values were calculated using a four-parameter fit of eight-point potency curves derived from three independent experiments, and are quoted with a standard deviation.

[3] = biological target: T1, T. brucei GlcNAc-PI de-N-acetylase; details: previous studies; cited from earlier work
T. brucei GPI pathway = test: Trypanosome cell-free system with [3H]-mannose labelling (HPTLC, fluorography); type: biochemical, Trypanosoma brucei
Excerpt: The ability of 49 and 48 to act as a substrate and inhibitor, respectively, of the T. brucei GPI pathway was confirmed using the trypanosome cell-free system with [^3H]-mannose labelling (Fig. 5). […] As these mannosylated compounds lack the inositol 2-OH group they cannot undergo inositol acylation, a prerequisite for the transfer of ethanolamine, and thus are not processed past the Man3-species.
Fig. 5 The trypanosome GPI biosynthesis in the cell-free system. A. The T. brucei cell-free system was incubated without exogenous substrate, with 1, α-D-GlcpNAc-PI (10 μM), or with 49 (100 μM) in the presence of GDP-[^3H]Mannose to stimulate the production of radiolabelled mannosylated GPI intermediates. B. Inhibition of the turnover of 3, α-D-GlcpNAc-IPC18 (10 μM), in the presence of 48 (100 μM). Glycolipid products were extracted, separated by high-performance thin-layer chromatography, and visualised by fluorography. DPM – dolichol-phosphate-mannose, M1 – Man1 species, M2 – Man2 species, M3 – Man3 species, A′ – EtNPMan3 species, where the identity and migration of the species depends on the glycolipid substrate employed.
The formation of GPI precursors is monitored by following the incorporation of [^3H]-mannose and then they were analysed using […] and fluorography as described previously.

T1 sequence (Q8I8A5 entry or part of it): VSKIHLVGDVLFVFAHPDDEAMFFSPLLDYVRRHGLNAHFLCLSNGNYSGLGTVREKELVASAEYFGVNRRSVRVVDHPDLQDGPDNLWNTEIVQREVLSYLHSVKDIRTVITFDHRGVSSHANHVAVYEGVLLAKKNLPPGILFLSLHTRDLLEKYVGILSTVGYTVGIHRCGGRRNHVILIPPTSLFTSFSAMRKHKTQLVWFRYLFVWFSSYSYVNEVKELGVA

Compound | Substrate activity: recognised and processed (in words) [1] | Inhibitory activity (in words) [2] | also measured
CCCCCCCCCCCCCCCCCCOP(=O)(O)O[C@@H]1CCCC[C@H]1OCC(CO)NC(C)=O (stereo partly shown) [Compound 53] | inactivity | inactivity | –
CCCCCCCCCCCCCCCC(=O)OC[C@H](COP(=O)(O)O[C@H]1[C@@H](O)[C@@H](O)[C@H](O)[C@@H](O)[C@@H]1O[C@H]1O[C@H](CO)[C@@H](O)[C@H](O)[C@H]1NC(C)=O)OC(=O)CCCCCCCCCCCCCCC [Compound 5] | – | – | Recognition and processing by the enzyme (in words) [3]: recognise and process
CCCCCCCCCCCCCCCCCCOP(=O)(O)OC1C(O)C(O)C(O)C(O)C1OC1OC(CO)C(O)C(O)C1NC(C)=O (stereo not shown) [Compound 3, reference compound] | – | – | Turnover [1]: 27.0 ± 6.0 pmol/10^6 cells equiv.; Relative turnover [1]: 450%
CCCCCCCCCCCCCCCCCCOP(=O)(O)O[C@@H]1CCCC[C@H]1O[C@H]1O[C@H](CO)[C@@H](O)[C@H](O)[C@H]1NC(C)=O [Compound 47] | – | act as inhibitors | –
CCCCCCCCCCCCCCCC(=O)OCC(COP(=O)(O)OC1C(O)C(O)C(O)C(O)C1OC1OC(CO)C(O)C(O)C1NC(C)=O)OC(=O)CCCCCCCCCCCCCCC [Compound 1, 1-D-(2-acetamido-2-deoxy-α-D-glucopyranosyl)-myo-inositol 1-(1,2-di-O-hexadecanoyl-sn-glycerol 3-phosphate), reference compound] | – | – | Turnover [1]: 6.1 ± 0.9 pmol/10^6 cells equiv.; Relative turnover [1]: 100%; Recognition and processing by the enzyme (in words) [3]: recognised and processed
CCCCCCCCCCCCCCCCCCOP(=O)(O)O[C@@H]1CCCC[C@H]1O[C@@H]1O[C@H](CO)[C@@H](O)[C@H](O)[C@H]1NC(C)=O [Compound 48] | – | act as inhibitors | Inhibition of priming of the cell-free system with 3 (T. brucei GPI pathway; 3 (α-D-GlcpNAc-IPC18) at 10 μM, inhibitor at 100 μM): efficiently prevented
CCCCCCCCCCCCCCCCCCS(=O)(=O)N[C@@H]1CCCC[C@H]1O[C@@H]1O[C@H](CO)[C@@H](O)[C@H](O)[C@H]1NC(C)=O [Compound 51] | inability | inability | –
CCCCCCCCCCCCCCCCCCS(=O)(=O)N[C@@H]1CCCC[C@H]1O[C@H]1O[C@H](CO)[C@@H](O)[C@H](O)[C@H]1NC(C)=O [Compound 52] | inability | inability | –
CCCCCCCCCCCCCCCC(=O)OC[C@H](COP(=O)(O)O[C@@H]1CCCC[C@H]1O[C@@H]1O[C@H](CO)[C@@H](O)[C@H](O)[C@H]1NC(C)=O)OC(=O)CCCCCCCCCCCCCCC [Compound 50] | neither a substrate nor an inhibitor | neither a substrate nor an inhibitor | –
CCCCCCCCCCCCCCCC(=O)OC[C@H](COP(=O)(O)O[C@@H]1CCCC[C@H]1O[C@H]1O[C@H](CO)[C@@H](O)[C@H](O)[C@H]1NC(C)=O)OC(=O)CCCCCCCCCCCCCCC [Compound 49] | both recognised and processed | – | Turnover [1]: 1.3 ± 0.3 pmol/10^6 cells equiv.; Relative turnover [1]: 22%; Formation of mannosylated GPI intermediates on priming the cell-free system (T. brucei GPI pathway; 49 at 100 μM, GDP-[3H]Mannose, bands sensitive to jackbean α-mannosidase): three bands corresponding to the addition of 1–3 mannose residues
CCCCCCCCCCCCCCCC(=O)OC[C@H](COP(=O)(O)O[C@@H]1[C@H](O)[C@H](O)[C@@H](O)[C@H](O)[C@H]1O[C@@H]1O[C@H](CO)[C@@H](O)[C@H](O)[C@H]1NC(C)=O)OC(=O)CCCCCCCCCCCCCCC [Compound 6] | – | – | Recognition and processing by the enzyme (in words) [3]: recognised and processed; also recorded: recognise and process
